pIC50: −log10 of the molar value.

Usually pIC50 stands for −log10 of the IC50, conventionally taken in molar units.

In this test the target is T1, NLRP3 (Homo sapiens, UniProt Q96P20).
T1 construct: host or cells: THP-1 cells differentiated with PMA
T1 sequence (Q96P20 whole entry): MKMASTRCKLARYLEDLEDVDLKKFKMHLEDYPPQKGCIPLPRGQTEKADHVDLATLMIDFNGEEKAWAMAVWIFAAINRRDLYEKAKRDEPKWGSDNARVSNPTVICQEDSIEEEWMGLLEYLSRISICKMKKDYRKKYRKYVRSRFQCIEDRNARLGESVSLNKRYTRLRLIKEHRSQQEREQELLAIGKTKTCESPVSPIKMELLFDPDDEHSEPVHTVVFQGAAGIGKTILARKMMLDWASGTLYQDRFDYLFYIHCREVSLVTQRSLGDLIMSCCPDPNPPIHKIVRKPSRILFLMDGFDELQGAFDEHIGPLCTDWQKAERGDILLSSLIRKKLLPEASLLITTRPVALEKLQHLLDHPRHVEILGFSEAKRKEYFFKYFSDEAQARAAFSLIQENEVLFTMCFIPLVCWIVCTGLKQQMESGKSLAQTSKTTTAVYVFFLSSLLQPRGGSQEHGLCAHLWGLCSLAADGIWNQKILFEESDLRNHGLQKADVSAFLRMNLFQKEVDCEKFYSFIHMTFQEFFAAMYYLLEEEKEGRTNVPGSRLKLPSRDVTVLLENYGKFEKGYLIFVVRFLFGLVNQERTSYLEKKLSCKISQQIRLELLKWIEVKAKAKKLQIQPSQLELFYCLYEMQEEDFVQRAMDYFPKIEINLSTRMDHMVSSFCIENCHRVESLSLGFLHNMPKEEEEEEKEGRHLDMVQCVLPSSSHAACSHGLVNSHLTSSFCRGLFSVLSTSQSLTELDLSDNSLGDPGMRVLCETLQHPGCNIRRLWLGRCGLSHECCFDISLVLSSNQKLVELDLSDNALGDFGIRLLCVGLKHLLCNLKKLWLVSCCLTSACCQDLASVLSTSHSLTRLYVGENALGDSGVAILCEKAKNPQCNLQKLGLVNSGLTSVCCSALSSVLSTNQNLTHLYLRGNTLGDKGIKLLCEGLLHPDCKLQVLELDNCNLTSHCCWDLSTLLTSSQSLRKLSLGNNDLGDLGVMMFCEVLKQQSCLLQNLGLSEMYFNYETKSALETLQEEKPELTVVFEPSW
Nature of the test: IL-1β Secretion Assay (NLRP3-dependent IL1β secretion in THP1 cells). The class given is cell-based. Conditions: PMA-differentiated THP-1 cells; compounds incubated 20 h; 2.5 μM Nigericin 3 h; HTRF IL-1β readout; read-out: IC50 IL-1β Inhibition. The essentials:
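IL-1β in conditioned media, measured by HTRF after 3 h 2.5 μM nigericin stimulation, gave % inhibition fitted logistically for IC50. Before that, PMA-differentiated (100 ng/mL, 24 h) THP-1 cells were preincubated 20 h with 7 compound concentrations (3-fold serial, DMSO 1:200).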
A general note: Time-resolved FRET reads energy transfer from a long-lived donor to a nearby acceptor.
As for `Cc1ccc(-c2nnc(NC(C)c3cccc(O)c3)n3cccc23)c(OC(F)F)c1` (stereo not shown) [Compound 100, 3-[1-({1-[2-(difluoromethoxy)-4-methylphenyl]pyrrolo[1,2-d][1,2,4]triazin-4-yl}amino)ethyl]phenol], the pIC50 is 8.00 to 9.00.
In the case of `Cc1ccc(-c2nnc(N[C@@H]3CCCC[C@@H]3O)n3cccc23)c(OC(F)F)c1` [Compound 137, (1S,2R)-2-({1-[2-(difluoromethoxy)-4-methylphenyl]pyrrolo[1,2-d][1,2,4]triazin-4-yl}amino)cyclohexan-1-ol], the pIC50 was 8.00 to 9.00.
To `C[C@]1(O)C[C@@H](Nc2nnc(-c3ccc(Cl)cc3C(F)(F)F)c3cncn23)C1` [Compound 298, (1s,3s)-3-({1-[4-chloro-2-(trifluoromethyl)phenyl]imidazo[1,5-d][1,2,4]triazin-4-yl}amino)-1-methylcyclobutan-1-ol] belongs 8.00 to 9.00; to `COc1ccc(-c2nnc(Nc3cc[nH]n3)n3cccc23)c(C2CC2)c1` [Compound 105, 1-(2-cyclopropyl-4-methoxyphenyl)-N-(1H-pyrazol-3-yl)pyrrolo[1,2-d][1,2,4]triazin-4-amine], 6.52 to 7.00; to `C[C@]1(O)C[C@@H](Nc2nnc(-c3ccc(OC(F)F)cc3OC(F)(F)F)c3cncn23)C1` [Compound 244, (1s,3s)-3-({1-[4-(difluoromethoxy)-2-(trifluoromethoxy)phenyl]imidazo[1,5-d][1,2,4]triazin-4-yl}amino)-1-methylcyclobutan-1-ol], greater than 9.00.
To `O[C@H]1CCCC[C@@H]1Nc1nnc(-c2ccc(C(F)(F)F)cc2C(F)(F)F)c2cccn12` [Compound 99, (1S,2S)-2-({1-[2,4-bis(trifluoromethyl)phenyl]pyrrolo[1,2-d][1,2,4]triazin-4-yl}amino)cyclohexan-1-ol] belongs 6.52 to 7.00.
For the compound `O=C1NCCC1Nc1nnc(-c2ccc(C3CC3)cc2CC(F)(F)F)c2cncn12` (stereo not shown) [Compound 350, 3-({1-[4-cyclopropyl-2-(2,2,2-trifluoroethyl)phenyl]imidazo[1,5-d][1,2,4]triazin-4-yl}amino)pyrrolidin-2-one], the pIC50 was 8.00 to 9.00.
To `CCN1CCC[C@@H](Nc2nnc(-c3ccc(C(F)(F)F)cc3OCF)c3cccn23)C1` [Compound 169, N-[(3R)-1-ethylpiperidin-3-yl]-1-[2-(fluoromethoxy)-4-(trifluoromethyl)phenyl]pyrrolo[1,2-d][1,2,4]triazin-4-amine] belongs greater than 9.00; to `COc1ccc(-c2nnc(NC3CC(C)(CO)C3)n3cncc23)c(CC(F)(F)F)c1` (stereo not shown) [Compound 337, [3-({1-[4-methoxy-2-(2,2,2-trifluoroethyl)phenyl]imidazo[1,5-d][1,2,4]triazin-4-yl}amino)-1-methylcyclobutyl]methanol], 7.00 to 8.00.
With `COc1ccc(-c2nnc(NCc3cccc(O)c3)n3cncc23)c(OC(F)(F)F)c1` [Compound 233, 3-[{{1-[4-methoxy-2-(trifluoromethoxy)phenyl]imidazo[1,5-d][1,2,4]triazin-4-yl}amino)methyl]phenol], the negative logarithm of the IC50 (pIC50) was 8.00 to 9.00.
To `Cc1cc2c(-c3ccc(C(F)(F)F)cc3OC(F)F)nnc(N[C@H]3C[C@@](C)(O)C3)n2n1` [Compound 380, (1s,3s)-3-({4-[2-(difluoromethoxy)-4-(trifluoromethyl)phenyl]-2-methylpyrazolo[1,5-d][1,2,4]triazin-7-yl}amino)-1-methylcyclobutan-1-ol] belongs 8.00 to 9.00; to `Cc1cc2c(-c3ccc(C(F)(F)F)cc3OC(F)(F)F)nnc(N[C@H]3C[C@@](C)(O)C3)n2n1` [Compound 3, (1s,3s)-1-methyl-3-({2-methyl-4-[2-(trifluoromethoxy)-4-(trifluoromethyl)phenyl]pyrazolo[1,5-d][1,2,4]triazin-7-yl}amino)cyclobutan-1-ol], 8.00 to 9.00; to `O=C1NCCC1Nc1nnc(-c2ccc(C(F)(F)F)cc2CC(F)(F)F)c2cccn12` (stereo not shown) [Compound 77, 3-({1-[2-(2,2,2-trifluoroethyl)-4-(trifluoromethyl)phenyl]pyrrolo[1,2-d][1,2,4]triazin-4-yl}amino)pyrrolidin-2-one], 8.00 to 9.00.
For the compound `CCN1CCC[C@@H](Nc2nnc(-c3ccc(OC)cc3OC(F)(F)F)c3c(F)ccn23)C1` [Compound 50, N-[(3R)-1-ethylpiperidin-3-yl]-8-fluoro-1-[4-methoxy-2-(trifluoromethoxy)phenyl]pyrrolo[1,2-d][1,2,4]triazin-4-amine], the negative-log IC50 (pIC50) was greater than 9.00.
To `COc1ccc(-c2nnc(NC(C)c3cccc(O)c3)n3cncc23)c(CC(F)(F)F)c1` (stereo not shown) [Compound 303, 3-[1-({1-[4-methoxy-2-(2,2,2-trifluoroethyl)phenyl]imidazo[1,5-d][1,2,4]triazin-4-yl}amino)ethyl]phenol] belongs greater than 9.00.
For the compound `FC(F)(F)c1ccc(-c2nnc(N[C@@H]3CCCOC3)n3cncc23)c(C(F)(F)F)c1` [Compound 254, 1-[2,4-bis(trifluoromethyl)phenyl]-N-[(3R)-oxan-3-yl]imidazo[1,5-d][1,2,4]triazin-4-amine], the negative-log IC50 (pIC50) is 7.00 to 8.00.
To `O=C1NCCCC1Nc1nnc(-c2ccc(C(F)(F)F)cc2C(F)(F)F)c2cncn12` (stereo not shown) [Compound 276, 3-({1-[2,4-bis(trifluoromethyl)phenyl]imidazo[1,5-d][1,2,4]triazin-4-yl}amino)piperidin-2-one] belongs 7.00 to 8.00; to `C[C@]1(O)C[C@@H](Nc2nnc(-c3ccc(Cl)cc3OC(F)F)c3cncn23)C1` [Compound 194, (1s,3s)-3-({1-[4-chloro-2-(difluoromethoxy)phenyl]imidazo[1,5-d][1,2,4]triazin-4-yl}amino)-1-methylcyclobutan-1-ol], 8.00 to 9.00; to `COc1ccc(-c2nnc(NC3CCNC3=O)n3cncc23)c(C(F)(F)F)c1` (stereo not shown) [Compound 235, 3-({1-[4-methoxy-2-(trifluoromethyl)phenyl]imidazo[1,5-d][1,2,4]triazin-4-yl}amino)pyrrolidin-2-one], 8.00 to 9.00.
With `COc1cc(C)c(-c2nnc(N[C@@H]3CCCN(C)C3)n3cccc23)c(F)c1` [Compound 118, 1-(2-fluoro-4-methoxy-6-methylphenyl)-N-[(3R)-1-methylpiperidin-3-yl]pyrrolo[1,2-d][1,2,4]triazin-4-amine], the pIC50 was greater than 9.00.
For `COc1ccc(-c2nnc(N[C@H]3C[C@@](C)(O)C3)n3nc(C)cc23)c(CC(F)(F)F)c1` [Compound 387, (1s,3s)-3-({4-[4-methoxy-2-(2,2,2-trifluoroethyl)phenyl]-2-methylpyrazolo[1,5-d][1,2,4]triazin-7-yl}amino)-1-methylcyclobutan-1-ol] the value was 8.00 to 9.00; for `O=C1NCCC1Nc1nnc(-c2ccc(C(F)(F)F)cc2OC(F)(F)F)c2cncn12` (stereo not shown) [Compound 256, 3-({1-[2-(trifluoromethoxy)-4-(trifluoromethyl)phenyl]imidazo[1,5-d][1,2,4]triazin-4-yl}amino)pyrrolidin-2-one], greater than 9.00.
As for `CC(C)(O)C1CC(Nc2nnc(-c3ccc(C(F)(F)F)cc3CC(F)(F)F)c3cncn23)C1` (stereo not shown) [Compound 339, 2-[3-({1-[2-(2,2,2-trifluoroethyl)-4-(trifluoromethyl)phenyl]imidazo[1,5-d][1,2,4]triazin-4-yl}amino)cyclobutyl]propan-2-ol], the pIC50 is 7.00 to 8.00.
For `Cc1ccc(-c2nnc(N[C@H]3C[C@@](C)(O)C3)n3cccc23)c(CC(F)(F)F)c1` [Compound 158, (1s,3s)-1-methyl-3-({1-[4-methyl-2-(2,2,2-trifluoroethyl)phenyl]pyrrolo[1,2-d][1,2,4]triazin-4-yl}amino)cyclobutan-1-ol], the pIC50 was 8.00 to 9.00.
To `O[C@@H]1COCC[C@H]1Nc1nnc(-c2ccc(C(F)(F)F)cc2C2CC2)c2cncn12` [Compound 334, (3S,4R)-4-({1-[2-cyclopropyl-4-(trifluoromethyl)phenyl]imidazo[1,5-d][1,2,4]triazin-4-yl}amino)oxan-3-ol] belongs 7.00 to 8.00; to `O=C1NCCC1Nc1nnc(-c2ccc(C(F)(F)F)cc2C2CC2)c2cncn12` (stereo not shown) [Compound 333, 3-({1-[2-cyclopropyl-4-(trifluoromethyl)phenyl]imidazo[1,5-d][1,2,4]triazin-4-yl}amino)pyrrolidin-2-one], 8.00 to 9.00; to `O[C@H]1CCC[C@@H](Nc2nnc(-c3ccc(OC(F)F)cc3OC(F)(F)F)c3cncn23)C1` [Compound 245, (1S,3R)-3-({1-[4-(difluoromethoxy)-2-(trifluoromethoxy)phenyl]imidazo[1,5-d][1,2,4]triazin-4-yl}amino)cyclohexan-1-ol], 8.00 to 9.00.
As for `O[C@@H]1COCC[C@H]1Nc1nnc(-c2ccc(C3CC3)cc2CC(F)(F)F)c2cncn12` [Compound 351, (3S,4R)-4-({1-[4-cyclopropyl-2-(2,2,2-trifluoroethyl)phenyl]imidazo[1,5-d][1,2,4]triazin-4-yl}amino)oxan-3-ol], the negative logarithm of the IC50 (pIC50) is 8.00 to 9.00.
On to `Cc1ccc(-c2nnc(N[C@@H]3CCCN(C)C3)n3cccc23)c(CC(F)(F)F)c1` [Compound 159, N-[(3R)-1-methylpiperidin-3-yl]-1-[4-methyl-2-(2,2,2-trifluoroethyl)phenyl]pyrrolo[1,2-d][1,2,4]triazin-4-amine], for which the pIC50 is greater than 9.00.
To `O[C@H]1CCOC[C@@H]1Nc1nnc(-c2ccc(C(F)(F)F)cc2C(F)(F)F)c2cncn12` [Compound 274, (3S,4S)-3-({1-[2,4-bis(trifluoromethyl)phenyl]imidazo[1,5-d][1,2,4]triazin-4-yl}amino)oxan-4-ol] belongs 7.00 to 8.00; to `COc1ccc(-c2nnc(N[C@H]3C[C@@](C)(O)C3)n3cccc23)c(C(F)(F)F)c1` [Compound 71, (1s,3s)-3-({1-[4-methoxy-2-(trifluoromethyl)phenyl]pyrrolo[1,2-d][1,2,4]triazin-4-yl}amino)-1-methylcyclobutan-1-ol], 8.00 to 9.00.

For the origin of these results see patent publication US20250179078A1, “INHIBITORS OF NLRP3” (PTC THERAPEUTICS, INC., priority 2022, published 2025).
